Data from US20140155361A1, “METHOD FOR TREATING LUNG DISEASE” (Duke University, priority 2010, published 2014).

Tests used:
[1] = system: NQO1 deficient and C57BL/6 mice; assay: elastase (PPE) model of emphysema with oral NAC; type: in vivo, mouse
Source text: (§1) C57BL/6J mice were purchased from Jackson Laboratories (Bar Harbor, Me.) to be used as controls. A breeding colony was established at Duke University from breeding pairs of NQO1 deficient mice (backcrossed 16 generations on a C57BL/6 background) that were generously provided by Dr. Frank Gonzalez at the National Cancer Institute (Bethesda, Md.) (Radjendirane et al. J. Biol. Chem. 1998; 273:7382-7389). Male C57BL/6 or NQO1 deficient mice were used at one, two, four and six months of age. Experimental protocols were approved by the Institutional Animal Care and Use Committee at Duke University Medical Center and were performed in accordance with the standards established by the U.S. Animal Welfare Act.
At two months of age, WT and NQO1 deficient mice were treated with porcine pancreatic elastase (PPE, Sigma Aldrich, St. Louis Mo.) or saline by oropharyngeal aspiration. Briefly, immediately after inhalational anesthesia with 3% isoflurane (IsoFlo from Abbott Laboratories and Open-Circuit Gas Anesthesia System from Stoelting), animals were suspended by their upper incisors on a 60° incline board, and a liquid volume of PPE [25 μg/50 μL saline] or saline alone was delivered by oropharyngeal aspiration. Thirteen days post, the mice were phenotyped by flexiVent for pulmonary mechanics and lavage to collect bronchoalveolar lavage fluid (Foster et al. J Appl Physiol 2001; 90:1111-1117).
(§2) N-acetyl cysteine (Sigma Aldrich, St. Louis Mo.) was dissolved in the mouse water at a concentration of 2 mg/mL (March et al. Toxicol. Sci. 2006; 92:545-559). The water was changed every two days to prevent oxidation of the NAC. Mice were given NAC in their water for one week before LPS/Saline or PPE/Saline treatment and remained on the NAC water until phenotyping.
(§3) For the mice that underwent pulmonary function tests, the procedure required approximately five minutes per mouse from the point at which the mouse was administered anesthetic and prepared for surgery until the conclusion of pulmonary function measurements and euthanasia. Mice were anesthetized (60 mg/kg Nembutal) and surgically prepared with a tracheal cannula and then placed on a computer-controlled ventilator (flexiVent, SCIREQ, Montreal, Canada) at a constant tidal volume of 7.5 mL/kg and a […] of 3 cm H2O. The animals were then given a neuromuscular blockade (0.8 mg/kg Pancuronium Bromide, Sigma-Aldrich) and given three minutes to adjust to the ventilator. Pressure-volume curves were generated by slow stepwise (ramp) inflation to total lung capacity and deflation back to […] residual capacity (Lovgren et al. Am. J. Physiol. 2006; 291:L144-156). The static compliance measurements were calculated from the pressure volume curves ([…]).
(§4) Alveolar surface density (ASD) was calculated as previously described (Auten et al. Am. J. Physiol. 2001; 281:L336-344). Briefly, ten digital images of parenchymal architecture from each mouse were captured at 40× magnification were chosen (omitting large vascular and bronchiolar structures) from 5 μm thick sections of paraffin embedded, formalin-fixed mouse lung that were stained with hematoxylin and eosin (H&E stain, AML Laboratories, Rosedale, Md.). Five random fields were chosen (omitting large vascular and bronchiolar structures) and images were overlaid with an 11°-11 point grid (Metamorph; Universal Imaging, West Chester, Pa.) for point (P) and intercept (I) counting of the alveolar septa. Alveolar volume density was calculated from Palveoli/Pparenchyma and alveolar surface density from 2Ialveoli/LT, where LT was the test line length within the lung parenchyma.

[2] = system: NQO1 deficient and C57BL/6 mice; assay: LPS-induced murine emphysema with oral NAC; type: in vivo, mouse
Source text: as §1
LPS (Sigma Aldrich, St Louis Mo.) was reconstituted with sterile saline and added for a dose of 5 μg/m^3. At one month of age, mice were placed in stainless steel wire cage exposure racks in a 20-L plexiglass chamber and exposed to aerosolized LPS for 2.5 hours. LPS solution was aerosolized with a 6-jet atomizer (TSI) with all output directed to the exposure chamber. Filtered air was supplied to the atomizer at 30-psi gauge pressure (Brass et al. Am. J. Resp. Cell. Mol. 2008; 39:584-590). Mice were then returned to their cages. The mice were exposed every other day for a total of three exposures and then given four weeks to recover.
as §2, §3
as §4, with “Five random fields were chosen (omitting large vascular and bronchiolar structures) and images were overlaid with an 11°-11 point grid (Metamorph; Universal Imaging, West Chester, Pa.) for point (P) and intercept (I) counting of the alveolar septa.” left out, “parenchyma. […]” for “parenchyma.”

[3] = system: mouse alveolar macrophage cell line (MHS cells); assay: oxidative stress in macrophage cell line after NQO1 inhibitor or inducer pretreatment and LPS or PMA challenge; type: cell-based; settings: pretreated 4 hours (100 nM MAC220 or 5-10 μM β-lapachone), then PMA or LPS 2 hours, supernatant
Experimental: Murine alveolar macrophage cell line (MH-S cell) purchased from ATCC (Manassas, Va.) was used for in vitro NQO1 blocking and inducing assays. Cells were cultured in RPMI1640 medium supplemented with 10% heat-inactivated fetal bovine serum, 2 mM L-glutamine, penicillin (100 U/ml), streptomycin (100 μg/ml), and 10 mM HEPES. To determine the role of NQO1 in macrophage response to LPS or PMA, cells at 80-90% confluence were pretreated with 10 μM of dicumerol for 1 hour, 100 nM of MAC220 or 5-10 μM of β-lapachone for 4 hours, and then were challenged by 20 ng/ml of LPS or 1 μM of PMA. Cell culture supernatants were collected after 2 hour incubation. Same volume of DMSO and PBS were used as vehicle control.

[4] = system: human DNA Topoisomerase II; settings: cited from earlier work
[5] = molecular target: T1, human DNA Topoisomerase I (Homo sapiens, UniProt P11387); settings: cited from earlier work
T1 sequence (P11387 1-765): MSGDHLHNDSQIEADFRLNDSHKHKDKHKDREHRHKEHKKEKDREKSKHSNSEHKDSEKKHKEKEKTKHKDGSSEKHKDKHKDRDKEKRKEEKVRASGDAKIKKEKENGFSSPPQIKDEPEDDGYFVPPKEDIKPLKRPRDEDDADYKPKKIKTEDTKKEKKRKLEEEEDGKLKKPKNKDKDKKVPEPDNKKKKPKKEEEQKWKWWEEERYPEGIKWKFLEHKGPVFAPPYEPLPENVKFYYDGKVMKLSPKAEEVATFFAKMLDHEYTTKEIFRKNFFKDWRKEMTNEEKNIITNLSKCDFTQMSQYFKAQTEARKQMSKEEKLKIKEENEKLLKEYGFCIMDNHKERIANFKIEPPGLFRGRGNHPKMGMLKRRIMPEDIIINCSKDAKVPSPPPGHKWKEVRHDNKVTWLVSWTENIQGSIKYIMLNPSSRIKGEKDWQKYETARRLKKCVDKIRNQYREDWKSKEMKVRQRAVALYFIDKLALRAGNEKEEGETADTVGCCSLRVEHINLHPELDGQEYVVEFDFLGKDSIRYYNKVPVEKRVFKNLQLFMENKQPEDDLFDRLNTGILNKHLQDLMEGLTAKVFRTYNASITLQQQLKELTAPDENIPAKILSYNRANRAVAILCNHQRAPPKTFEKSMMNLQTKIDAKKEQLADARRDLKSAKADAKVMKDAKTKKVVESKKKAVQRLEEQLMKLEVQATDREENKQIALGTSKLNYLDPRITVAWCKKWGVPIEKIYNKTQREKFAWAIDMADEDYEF

[6] = system: human cancer cell lines; settings: single agent, read-out: antineoplastic activity (IC50); cited from earlier work
[7] = BALF, NQO1 and WT mice given NAC prior to elastase challenge
[8] = NQO1 deficient mice, oral NAC in water + elastase vs elastase only
[9] = LPS treated NQO1 deficient mice compared to LPS+NAC NQO1 deficient mice

In the case of `CC(=O)N[C@@H](CS)C(=O)O` [NAC, N-acetyl cysteine], the 8-isoprostane levels [1, 7] is reported as “reduction”, the protein carbonyls [1, 7] is reported as “reduction” and the “Glutathione measurements in the BAL” value ([1]; NQO1 deficient mice treated with NAC, elastase model) is reported as “increased concentrations”. The lung compliance [1, 8] was “partially attenuated”, the pressure-volume measurements [1, 8] was “partially attenuated” and the “neutrophils in BALF” value ([1]; PPE only group compared to the PPE+NAC group, NQO1 deficient and C57BL/6 mice) was “significant increase”. For the same molecule, the mean line intercepts ([1]; PPE+NAC vs PPE groups) was “complete abrogation of the elastase effect”, the surface alveolar density ([1]; PPE+NAC vs PPE groups) was “complete abrogation of the elastase effect” and the “8-isoprostane concentrations in the BALF” value [2, 9] was “significant increase”. The “protein carbonyls in the BALF” value [2, 9] was “significant increase”, the “polymorphonuclear leukocytes, share of BALF cells” value ([2]; LPS+NAC treated NQO1 deficient mice (LPS only: 5-9%)) was 1-4% and the “Glutathione measurements in the BAL” value ([2]; NQO1 deficient mice treated with NAC, LPS model) was “increased concentrations”. The static compliance ([2]; NQO1 deficient mice, LPS + NAC vs LPS) was “attenuated”.
In the case of `CC1(C)CCC2=C(O1)c1ccccc1C(=O)C2=O` [β-lapachone, 3,4-dihydro-2,2-dimethyl-2H-naphtho[1,2-b]pyran-5,6-dione], the oxidative stress level [3] is listed as “dose response decrease”, the “in vitro inhibition of human DNA Topoisomerase II” value [4] is listed as “potent in vitro inhibition” and the “in vitro inhibition of human DNA Topoisomerase I” value [5] is listed as “potent in vitro inhibition”. The IC50 [6] was 1 to 10 µM.
